Test system: NK1 receptor
Test: NK1 receptor test by the methods of WO 93/01165, pages 36 to 39
Format: binding, human
Details: 3(R) compound compared with its 3(S) epimer, Example 124
Procedure: The exemplified compounds of this invention were tested by the methods set out at pages 36 to 39 of International Patent Specification No. WO 93/01165.

## (3R,5R,6S)-3-[2-(2,2,-Difluoroethoxy)-5-(difluoromethoxy)phenyl]-6-phenyl-1-oxa-7-(tert-butoxycarbonyl)aza-spiro[4,5]decane [Example 214]
  potency relative to epimer: more potent

Reference: patent US6071927A, “Spiro-piperidine derivatives and their use as therapeutic agents” (Merck Sharp & Dohme Ltd., priority 1996, dated 2000)
